From patent US4956504A, “Novel spergualin-related compounds and process for producing the same” (Zaidan Hojin Biseibutsu Kagaku Kenkyu Kai, priority 1986, dated 1990)
Counter-ions that a name gives are not always drawn.

How the values were obtained:
[1] = tested on: antibody formation (anti-SRBC plaque-forming cells); assay: Inhibitory activity against antibody formation (anti-SRBC plaque-forming cells in spleen); assay type: in vivo, mouse (CDF1-SLC female); conditions: once a day for three consecutive days, minus shows an increase of antibody formation
Experimental: (b) Inhibitory activity against antibody formation
Test groups and a control group of CDF1 -SLC female mice (each group: five mice) were intravenously sensitized with 1×10^8 /0.2 ml of sheep red blood cells (SRBC). A compound of the present invention was dissolved in a physiological saline solution in various concentrations. Each of the resulting solutions was administered to one of the test groups once a day for three consecutive days from the next day of the sensitization, in an amount of 0.1 ml/10 g (body weight)/day. The physiological saline solution was administered to the control group.
In the fourth day from the sensitization, all the mice were killed and the number of anti-SRBC plaque-forming cells (PFC) in the spleen cells of each mouse was measured. From this number, the PFC number per 10^6 of spleen cells was calculated. The effect of the present compound was expressed as an inhibition percentage (%) of PFC number of test group as compared with control group. [formula]
(§1) In Tables and 5, a control compound is included. This compound is such that in the general formula [I], X is [drawing 59] R is --CH2 OH and both of R1 and R2 are --H.

mouse leukemia L1210 = assay: Life prolongation effect to mouse leukemia L1210; assay type: in vivo, mouse (CDF1-SLC female); conditions: once a day for nine consecutive days, 125 or more is effective, read-out: T/C × 100 (life prolongation percentage); for response vs control in vivo at 0.39 mg/kg: 0.39 mg/kg/day; for response vs control in vivo at 0.78 mg/kg: 0.78 mg/kg/day; for response vs control in vivo at 1.56 mg/kg: 1.56 mg/kg/day; for response vs control in vivo at 3.13 mg/kg: 3.13 mg/kg/day; for response vs control in vivo at 6.25 mg/kg: 6.25 mg/kg/day; for response vs control in vivo at 12.5 mg/kg: 12.50 mg/kg/day; for response vs control in vivo at 25 mg/kg: 25.00 mg/kg/day; for response vs control in vivo at 50 mg/kg: 50.00 mg/kg/day
Experimental: 3. Life prolongation effect of present compound to mouse leukemia cells L1210 and its toxicity
1×10^5 /0.2 ml/mouse of mouse leukemia cells L1210 were intraperitoneally transplanted to test groups and a control group of CDF1 -SLC female mice (each group: four mice). A compound of the present invention was dissolved in a physiological saline solution in various concentrations and each of the resulting solutions was administered to one of the test groups once a day for nine consecutive days from the next day of the transplantation, in an amount of 0.1 ml/10 g (body weight)/day. The physiological saline solution was administered to the control group.
All the mice of the test groups and the control group were observed from the next day of the L1210 transplantation to examine their days of survival, and the average days of survival (T) of each test group and the average days of survival (C) of the control group were calculated. The life prolongation percentage of the present compound was expressed as (T/C)×100.
It is believed that a (T/C)×100 of 125 or more is effective.
as §1

mice = assay: Acute toxicity: administration amount causing acute death to mice; assay type: in vivo
Experimental: A compound of the present invention was dissolved in a physiological saline solution in various concentrations. Each of the resulting solutions was intraperitoneally administered to one of CDF1 -SLC female mice (one group: two to three mice) in an amount of 0.1 ml per 10 g of body weight. The highest concentration of present compound in solution was 400 mg/10 ml/kg, and starting from this solution of highest concentration, solutions of lower concentrations were prepared each time at a common ratio of 2. The administration amount of present compound with the lowest concentration solution with which at least one mouse died was taken as an administration amount of acute toxicity.
as §1

[2] = Administration amount 1.56 mg/kg
[3] = Administration amount 6.25 mg/kg
[4] = intraperitoneal, single, lowest amount with which at least one mouse died

Row | SMILES | Inhibitory percentage (antibody formation, PFC number vs control group) [1, 2] [%] | Inhibitory percentage (antibody formation, PFC number vs control group) [1, 3] [%] | response vs control in vivo at 0.39 mg/kg (mouse leukemia L1210) [%] | response vs control in vivo at 0.78 mg/kg (mouse leukemia L1210) [%] | response vs control in vivo at 1.56 mg/kg (mouse leukemia L1210) [%] | response vs control in vivo at 3.13 mg/kg (mouse leukemia L1210) [%] | response vs control in vivo at 6.25 mg/kg (mouse leukemia L1210) [%] | response vs control in vivo at 12.5 mg/kg (mouse leukemia L1210) [%] | response vs control in vivo at 25 mg/kg (mouse leukemia L1210) [%] | response vs control in vivo at 50 mg/kg (mouse leukemia L1210) [%] | Administration amount causing acute death to mice (mice; mouse, in vivo, ip) [mg/kg] | Administration amount causing acute death to mice (mice; [4]) [mg/kg] | response vs control in vivo at 0.2 mg/kg (mouse leukemia L1210; 0.20 mg/kg/day) [%] | response vs control in vivo at 100 mg/kg (mouse leukemia L1210; 100.00 mg/kg/day) [%]
1 | N=C(N)Nc1ccc(CCCC(=O)N[C@@H](CO)C(=O)NCCCCNCCCNC(=O)[C@@H](N)c2ccccc2)cc1 [Compound No. 1, 10-{N-[4-(4-GP)butanoyl]-L-Ser}-1-L-PhG-1,5,10-TAD trihydrochloride] | 87 | 97 | 146 | 195 | 296 | 269 | 315 | 278 | 294 | 327 | 100 | – | – | –
2 | CC(C)C[C@H](N)C(=O)NCCCNCCCCNC(=O)[C@H](CO)NC(=O)CCCc1ccc(NC(=N)N)cc1 [Compound No. 2, 10-{N-[4-(4-GP)butanoyl)-L-Ser}-1-L-] | 60 | 92 | 136 | 152 | 244 | 331 | 300 | 272 | 281 | 53 | – | – | – | –
3 | CC(C)C[C@@H](N)C(=O)NCCCNCCCCNC(=O)[C@H](CO)NC(=O)CCCc1ccc(NC(=N)N)cc1 [Compound No. 3, 10-{N-[4-(4-GP)butanoyl]-L-Ser}-1-D-Leu-1,5,10-TAD trihydrochloride] | – | – | – | – | – | – | – | – | – | – | – | 100 | – | –
4 | N=C(N)Nc1ccc(CCCC(=O)N[C@@H](CO)C(=O)NCCCCNCCCNC(=O)[C@H](N)c2ccccc2)cc1 [Compound No. 4, trihydrochloride] | 68 | 95 | 125 | 149 | 195 | 228 | 237 | 243 | 247 | 197 | 100 | – | – | –
5 | N=C(N)Nc1ccc(CCCC(=O)N[C@@H](CO)C(=O)NCCCCNCCCNC(=O)[C@@H](N)Cc2ccccc2)cc1 [Compound No. 5, 10-{N-[4-(4-GP)butanoyl]-L-Ser}-1-L-Phe-1,5,10-TAD trihydrochloride] | – | – | 123 | 133 | 146 | 265 | 290 | 290 | 284 | 253 | 100 | – | – | –
6 | N=C(N)Nc1ccc(CCCC(=O)N[C@@H](CO)C(=O)NCCCCNCCCNC(=O)[C@@H](N)Cc2ccc(O)cc2)cc1 [Compound No. 6, 10-{N-[4-(4-GP)butanoyl]-L-Ser}-1-L-Tyr-1,5,10-TAD trihydrochloride] | – | – | 125 | 158 | 201 | 267 | 250 | 250 | 270 | 162 | 100 | – | – | –
7 | N=C(N)Nc1ccc(CCCC(=O)N[C@@H](CO)C(=O)NCCCCNCCCNC(=O)[C@@H](N)CC(=O)O)cc1 [Compound No. 7, 10-{N-[4-(4-GP)butanoyl]-L-Ser}-1-L-Asp-1,5,10-TAD trihydrochloride] | – | – | 96 | 86 | 99 | 152 | 216 | 265 | 284 | 284 | 100 | – | – | –
8 | C[C@H](N)C(=O)NCCCNCCCCNC(=O)[C@H](CO)NC(=O)CCCc1ccc(NC(=N)N)cc1 [Compound No. 8, 10-{N-[4-(4-GP)butanoyl]-L-Ser}-1-L-Ala-1,5,10-TAD trihydrochloride] | – | – | 102 | 130 | 164 | 312 | 272 | 290 | 362 | – | – | – | 109 | –
9 | N=C(N)Nc1ccc(CCCC(=O)N[C@@H](CO)C(=O)NCCCCNCCCNC(=O)[C@@H](N)CO)cc1 [Compound No. 9, 10-{N-[4-(4-GP)butanoyl]-L-Ser}-1-L-Ser-1,5,10-TAD trihydrochloride] | – | – | – | 118 | 125 | 155 | 191 | 276 | 241 | 250 | > 100 | – | – | 103
10 | N=C(N)Nc1ccc(CCCC(=O)N[C@@H](CO)C(=O)NCCCCNCCCNC(=O)[C@@H]2CCCN2)cc1 [Compound No. 10, 10-{N-[4-(4-GP)butanoyl-L-Ser}-1-L-Pro-1,5,10-TAD trihydrochloride] | – | – | – | – | – | – | – | – | – | – | – | 100 | – | –
11 | N=C(N)Nc1ccc(CCCC(=O)N[C@@H](CO)C(=O)NCCCCNCCCNC(=O)[C@@H](O)[C@H](N)Cc2ccccc2)cc1 [Compound No. 12, 10-{N-[4-(4-GP)butanoyl]-L-Ser}-1-[(2S, 3R)-AHPA]-1,5,10-TAD trihydrochloride] | – | – | – | – | – | – | – | – | – | – | – | 100 | – | –
12 | CC(C)C[C@H](NC(=O)[C@@H](N)CC(C)C)C(=O)NCCCNCCCCNC(=O)[C@H](CO)NC(=O)CCCc1ccc(NC(=N)N)cc1 [Compound No. 13, 10-{N-[4-(4-GP)butanoyl]-L-Ser}-1-L-Leu-L-Leu-1,5,10-TAD trihydrochloride] | 53 | 88 | 132 | 149 | 201 | 283 | 247 | 257 | 274 | 303 | 100 | – | – | –
13 | N=C(N)Nc1ccc(CCCC(=O)N[C@@H](CO)C(=O)NCCCCN(CCCNC(=O)[C@@H](N)c2ccccc2)C(=O)[C@@H](N)c2ccccc2)cc1 [Compound No. 14, 10-{N-[4-(4-GP)butanoyl]-L-Ser}-1,5-di-L-PhG-1,5,10-TAD trihydrochloride] | -50 | -75 | – | – | – | – | – | – | – | – | 200 | – | – | –
